# Data published in PubChem BioAssay (NCI).
#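 A five-concentration, 48-hour dose response in 96-well plates underlies each endpoint, interpolated linearly between surrounding concentrations. GI50 marks 50% less growth. At the TGI there is no net growth.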
# Experiments:
# Test in all cases: NCI-60 cell line screen, 48 h
# HT29 colon = tested on: HT29 colon
# HCC-2998 colon = tested on: HCC-2998 colon
# SW-620 colon = tested on: SW-620 colon
# U251 CNS = tested on: U251 CNS
# T-47D breast = tested on: T-47D breast
# OVCAR-3 ovarian = tested on: OVCAR-3 ovarian
# COLO 205 colon = tested on: COLO 205 colon
# UACC-62 melanoma = tested on: UACC-62 melanoma
# HS 578T breast = tested on: HS 578T breast
# HOP-92 NSCLC = tested on: HOP-92 NSCLC
# NCI-H460 lung = tested on: NCI-H460 lung
# LOX IMVI melanoma = tested on: LOX IMVI melanoma
# K-562 leukemia = tested on: K-562 leukemia
# RPMI-8226 leukemia = tested on: RPMI-8226 leukemia
# UACC-257 melanoma = tested on: UACC-257 melanoma
# SF-295 CNS = tested on: SF-295 CNS
# A549 NSCLC = tested on: A549 NSCLC
# HCT-15 colon = tested on: HCT-15 colon
# SF-268 CNS = tested on: SF-268 CNS
# MDA-MB-435 = tested on: MDA-MB-435
# A498 renal = tested on: A498 renal
# SK-MEL-28 melanoma = tested on: SK-MEL-28 melanoma
# SK-MEL-2 melanoma = tested on: SK-MEL-2 melanoma
# MALME-3M melanoma = tested on: MALME-3M melanoma
# PC-3 prostate = tested on: PC-3 prostate
# MOLT-4 leukemia = tested on: MOLT-4 leukemia
# M14 melanoma = tested on: M14 melanoma
# SNB-19 CNS = tested on: SNB-19 CNS
# RXF 393 renal = tested on: RXF 393 renal
# HOP-62 NSCLC = tested on: HOP-62 NSCLC
# SN12C renal = tested on: SN12C renal
# NCI-H522 lung = tested on: NCI-H522 lung
# ACHN renal = tested on: ACHN renal
# OVCAR-5 ovarian = tested on: OVCAR-5 ovarian
# BT-549 breast = tested on: BT-549 breast
# HL-60(TB) leukemia = tested on: HL-60(TB) leukemia
# MDA-MB-231 breast = tested on: MDA-MB-231 breast
# SF-539 CNS = tested on: SF-539 CNS
# SNB-75 CNS = tested on: SNB-75 CNS
# TK-10 renal = tested on: TK-10 renal
# SR leukemia = tested on: SR leukemia
# NCI-H226 lung = tested on: NCI-H226 lung
# IGROV1 ovarian = tested on: IGROV1 ovarian
# CCRF-CEM leukemia = tested on: CCRF-CEM leukemia
# DU-145 prostate = tested on: DU-145 prostate
# CAKI-1 renal = tested on: CAKI-1 renal
# MCF7 breast = tested on: MCF7 breast
# KM12 colon = tested on: KM12 colon
# UO-31 renal = tested on: UO-31 renal
# NCI/ADR-RES ovarian = tested on: NCI/ADR-RES ovarian
# EKVX NSCLC = tested on: EKVX NSCLC
# 786-0 renal = tested on: 786-0 renal
# SK-OV-3 ovarian = tested on: SK-OV-3 ovarian
# NCI-H23 lung = tested on: NCI-H23 lung
# OVCAR-8 ovarian = tested on: OVCAR-8 ovarian
# HCT-116 colon = tested on: HCT-116 colon
# OVCAR-4 ovarian = tested on: OVCAR-4 ovarian
smiles,measurement,setting,value
COC(=O)c1nc(-c2ccccc2)oc1S(=O)(=O)Cc1ccccc1,GI50,HT29 colon,2.44 µM
same,TGI,HT29 colon,5.79 µM
same,GI50,HCC-2998 colon,19 µM
same,TGI,HCC-2998 colon,36.3 µM
same,GI50,SW-620 colon,2.05 µM
same,TGI,SW-620 colon,4.14 µM
same,GI50,U251 CNS,15.5 µM
same,TGI,U251 CNS,29 µM
same,GI50,T-47D breast,2.17 µM
same,TGI,T-47D breast,5.95 µM
same,GI50,OVCAR-3 ovarian,1.94 µM
same,TGI,OVCAR-3 ovarian,3.52 µM
same,GI50,COLO 205 colon,1.84 µM
same,TGI,COLO 205 colon,3.66 µM
same,GI50,UACC-62 melanoma,6.52 µM
same,TGI,UACC-62 melanoma,20 µM
same,GI50,HS 578T breast,19.2 µM
same,TGI,HS 578T breast,60.1 µM
same,GI50,HOP-92 NSCLC,1.61 µM
same,TGI,HOP-92 NSCLC,3.12 µM
same,GI50,NCI-H460 lung,19.8 µM
same,TGI,NCI-H460 lung,40 µM
same,GI50,LOX IMVI melanoma,2.88 µM
same,TGI,LOX IMVI melanoma,8.7 µM
same,GI50,K-562 leukemia,2.07 µM
same,TGI,K-562 leukemia,5.29 µM
same,GI50,RPMI-8226 leukemia,3.05 µM
same,TGI,RPMI-8226 leukemia,9.51 µM
same,GI50,UACC-257 melanoma,13.7 µM
same,TGI,UACC-257 melanoma,27.2 µM
same,GI50,SF-295 CNS,16.5 µM
same,TGI,SF-295 CNS,36.3 µM
same,GI50,A549 NSCLC,17.5 µM
same,TGI,A549 NSCLC,33.6 µM
same,GI50,HCT-15 colon,1.79 µM
same,TGI,HCT-15 colon,3.58 µM
same,GI50,SF-268 CNS,16.1 µM
same,TGI,SF-268 CNS,32.8 µM
same,GI50,MDA-MB-435,11.1 µM
same,TGI,MDA-MB-435,23.6 µM
same,GI50,A498 renal,15.9 µM
same,TGI,A498 renal,29.7 µM
same,GI50,SK-MEL-28 melanoma,7.15 µM
same,TGI,SK-MEL-28 melanoma,20.4 µM
same,GI50,SK-MEL-2 melanoma,12.7 µM
same,TGI,SK-MEL-2 melanoma,26.9 µM
same,GI50,MALME-3M melanoma,1.73 µM
same,TGI,MALME-3M melanoma,3.44 µM
same,GI50,PC-3 prostate,15 µM
same,TGI,PC-3 prostate,29.4 µM
same,GI50,MOLT-4 leukemia,2.11 µM
same,TGI,MOLT-4 leukemia,5.57 µM
same,GI50,M14 melanoma,3.87 µM
same,TGI,M14 melanoma,16.3 µM
same,GI50,SNB-19 CNS,16.3 µM
same,TGI,SNB-19 CNS,31.3 µM
same,GI50,RXF 393 renal,1.87 µM
same,TGI,RXF 393 renal,3.5 µM
same,GI50,HOP-62 NSCLC,26.8 µM
same,TGI,HOP-62 NSCLC,> 100 µM
same,GI50,SN12C renal,4.27 µM
same,TGI,SN12C renal,15.5 µM
same,GI50,NCI-H522 lung,1.52 µM
same,TGI,NCI-H522 lung,3.29 µM
same,GI50,ACHN renal,1.77 µM
same,TGI,ACHN renal,3.15 µM
same,GI50,OVCAR-5 ovarian,3.12 µM
same,TGI,OVCAR-5 ovarian,11.3 µM
same,GI50,BT-549 breast,6.5 µM
same,TGI,BT-549 breast,19.1 µM
same,GI50,HL-60(TB) leukemia,2.3 µM
same,TGI,HL-60(TB) leukemia,6.22 µM
same,GI50,MDA-MB-231 breast,2.18 µM
same,TGI,MDA-MB-231 breast,5.24 µM
same,GI50,SF-539 CNS,11.2 µM
same,TGI,SF-539 CNS,23.7 µM
same,GI50,SNB-75 CNS,14.1 µM
same,TGI,SNB-75 CNS,27.1 µM
same,GI50,TK-10 renal,1.74 µM
same,TGI,TK-10 renal,3.19 µM
same,GI50,SR leukemia,3.03 µM
same,TGI,SR leukemia,16.5 µM
same,GI50,NCI-H226 lung,13.9 µM
same,TGI,NCI-H226 lung,31.4 µM
same,GI50,IGROV1 ovarian,2.75 µM
same,TGI,IGROV1 ovarian,7.21 µM
same,GI50,CCRF-CEM leukemia,2.91 µM
same,TGI,CCRF-CEM leukemia,8.41 µM
same,GI50,DU-145 prostate,3.46 µM
same,TGI,DU-145 prostate,10.9 µM
same,GI50,CAKI-1 renal,1.84 µM
same,TGI,CAKI-1 renal,3.42 µM
same,GI50,MCF7 breast,2.72 µM
same,TGI,MCF7 breast,11.1 µM
same,GI50,KM12 colon,20.8 µM
same,TGI,KM12 colon,39.2 µM
same,GI50,UO-31 renal,1.48 µM
same,TGI,UO-31 renal,2.84 µM
same,GI50,NCI/ADR-RES ovarian,16.9 µM
same,TGI,NCI/ADR-RES ovarian,36.3 µM
same,GI50,EKVX NSCLC,14.4 µM
same,TGI,EKVX NSCLC,30.1 µM
same,GI50,786-0 renal,3.25 µM
same,TGI,786-0 renal,11 µM
same,GI50,SK-OV-3 ovarian,70.2 µM
same,TGI,SK-OV-3 ovarian,> 100 µM
same,GI50,NCI-H23 lung,16.2 µM
same,TGI,NCI-H23 lung,34.4 µM
same,GI50,OVCAR-8 ovarian,12.1 µM
same,TGI,OVCAR-8 ovarian,28.2 µM
same,GI50,HCT-116 colon,2.58 µM
same,TGI,HCT-116 colon,6.23 µM
same,GI50,OVCAR-4 ovarian,1.82 µM
same,TGI,OVCAR-4 ovarian,3.4 µM
